Data published in the NIST ThermoML archive (doi:10.1016/j.jct.2007.04.006).
Numbers after ± are expanded uncertainties.

Key:
[1] = mn = molality of the nth substance listed, in mol/kg; conditions: 298.15 K, 101 kPa, Liquid; for speed of sound: Sing-around technique in a fixed-path interferometer
[2] = 101.33 kPa, Liquid; for speed of sound: Sing-around technique in a fixed-path interferometer

[Br-].[Li+] [lithium bromide] + CC(C)O
[1]
Conditions | mass density [kg/m3] | speed of sound [m/s]
m1 = 0.0787 | 786.228 ± 0.31 | 1142.6 ± 1.2
m1 = 0.0957 | 787.379 ± 0.31 | 1143.1 ± 1.2
m1 = 0.1024 | 787.748 ± 0.3 | 1143.3 ± 1.2
m1 = 0.1387 | 790.137 ± 0.3 | 1144.5 ± 1.2
m1 = 0.1915 | 793.601 ± 0.3 | 1146.2 ± 1.2
m1 = 0.2503 | 797.348 ± 0.3 | 1148.1 ± 1.2
m1 = 0.3451 | 803.296 ± 0.29 | 1150.9 ± 1.2
m1 = 0.3951 | 806.427 ± 0.29 | 1152.3 ± 1.2
m1 = 0.4768 | 811.456 ± 0.28 | 1154.5 ± 1.3
m1 = 0.594 | 818.719 ± 0.28 | 1157.7 ± 1.2
m1 = 0.697 | 824.988 ± 0.27 | 1160.3 ± 1.2
m1 = 0.7757 | 829.74 ± 0.26 | 1162.3 ± 1.2
m1 = 0.9066 | 837.46 ± 0.26 | 1165.4 ± 1.2
m1 = 1.003 | 843.093 ± 0.25 | 1167.7 ± 1.2
m1 = 1.158 | 851.831 ± 0.24 | 1170.5 ± 1.2
m1 = 1.272 | 858.084 ± 0.24 | 1173.5 ± 1.2

[Br-].[Li+] [lithium bromide] + CCO
[1]
Conditions | mass density [kg/m3] | speed of sound [m/s]
m1 = 0.0789 | 790.432 ± 0.3 | 1147 ± 1.2
m1 = 0.0913 | 791.251 ± 0.3 | 1147.4 ± 1.2
m1 = 0.0985 | 791.782 ± 0.3 | 1147.8 ± 1.2
m1 = 0.1384 | 794.334 ± 0.3 | 1149.2 ± 1.2
m1 = 0.1556 | 795.465 ± 0.3 | 1150.1 ± 1.2
m1 = 0.2019 | 798.467 ± 0.29 | 1151.6 ± 1.2
m1 = 0.2348 | 800.584 ± 0.29 | 1152.6 ± 1.2
m1 = 0.2495 | 801.494 ± 0.29 | 1153.2 ± 1.2
m1 = 0.301 | 804.725 ± 0.29 | 1154.7 ± 1.2
m1 = 0.4002 | 810.966 ± 0.28 | 1157.8 ± 1.2
m1 = 0.4903 | 816.539 ± 0.28 | 1160.5 ± 1.2
m1 = 0.6076 | 823.796 ± 0.27 | 1163.8 ± 1.2
m1 = 0.7038 | 829.747 ± 0.27 | 1166.5 ± 1.2
m1 = 0.8013 | 835.512 ± 0.26 | 1168.9 ± 1.2
m1 = 0.8975 | 841.268 ± 0.25 | 1171.5 ± 1.2
m1 = 1.013 | 848.08 ± 0.25 | 1174.4 ± 1.2
m1 = 1.093 | 852.846 ± 0.24 | 1176.6 ± 1.2
m1 = 1.215 | 860.012 ± 0.23 | 1179.5 ± 1.2

CC(=O)N(C)C [N,N-dimethylethanamide]
[2], 323.15 K
Conditions | mass density [kg/m3] | speed of sound [m/s]
– | 913.129 ± 0.18 | 1357.8 ± 1.3

CC(C)=O [acetone]
[2], 298.15 K
Conditions | mass density [kg/m3] | speed of sound [m/s]
– | 784.233 ± 0.31 | 1161.7 ± 1.3

[Br-].[Li+] [lithium bromide] + CC#N
[1]
Conditions | mass density [kg/m3] | speed of sound [m/s]
m1 = 0.0209 | 778.135 ± 0.32 | 1279.8 ± 1.3
m1 = 0.0302 | 778.802 ± 0.32 | 1280.1 ± 1.3
m1 = 0.0403 | 779.512 ± 0.32 | 1280.4 ± 1.3
m1 = 0.0478 | 780.04 ± 0.31 | 1280.6 ± 1.3
m1 = 0.07 | 781.58 ± 0.31 | 1281.3 ± 1.3
m1 = 0.0799 | 782.247 ± 0.31 | 1281.6 ± 1.3
m1 = 0.0904 | 782.95 ± 0.31 | 1281.9 ± 1.3
m1 = 0.0986 | 783.518 ± 0.31 | 1282.1 ± 1.3
m1 = 0.1212 | 784.97 ± 0.31 | 1282.8 ± 1.3
m1 = 0.1506 | 786.812 ± 0.31 | 1283.7 ± 1.3
m1 = 0.1985 | 789.96 ± 0.3 | 1285 ± 1.3
m1 = 0.2498 | 793.354 ± 0.3 | 1286.4 ± 1.3
m1 = 0.2981 | 796.544 ± 0.3 | 1287.7 ± 1.3
m1 = 0.3974 | 803.094 ± 0.29 | 1290.4 ± 1.3
m1 = 0.5004 | 809.733 ± 0.28 | 1293.1 ± 1.3
m1 = 0.596 | 815.99 ± 0.28 | 1295.6 ± 1.3
m1 = 0.6972 | 822.595 ± 0.27 | 1298.2 ± 1.3
